Assay results from paper PMC3367201 (Nucleic Acids Research, 2012).

Molecular target: Hp ND-AspRS (non-discriminating aspartyl-tRNA synthetase) (Helicobacter pylori, UniProt P56459)
Test: inhibition of tRNA aminoacylation with […] L-Asp
Type: biochemical

Chain of Hp ND-AspRS (non-discriminating aspartyl-tRNA synthetase) (P56459 whole entry): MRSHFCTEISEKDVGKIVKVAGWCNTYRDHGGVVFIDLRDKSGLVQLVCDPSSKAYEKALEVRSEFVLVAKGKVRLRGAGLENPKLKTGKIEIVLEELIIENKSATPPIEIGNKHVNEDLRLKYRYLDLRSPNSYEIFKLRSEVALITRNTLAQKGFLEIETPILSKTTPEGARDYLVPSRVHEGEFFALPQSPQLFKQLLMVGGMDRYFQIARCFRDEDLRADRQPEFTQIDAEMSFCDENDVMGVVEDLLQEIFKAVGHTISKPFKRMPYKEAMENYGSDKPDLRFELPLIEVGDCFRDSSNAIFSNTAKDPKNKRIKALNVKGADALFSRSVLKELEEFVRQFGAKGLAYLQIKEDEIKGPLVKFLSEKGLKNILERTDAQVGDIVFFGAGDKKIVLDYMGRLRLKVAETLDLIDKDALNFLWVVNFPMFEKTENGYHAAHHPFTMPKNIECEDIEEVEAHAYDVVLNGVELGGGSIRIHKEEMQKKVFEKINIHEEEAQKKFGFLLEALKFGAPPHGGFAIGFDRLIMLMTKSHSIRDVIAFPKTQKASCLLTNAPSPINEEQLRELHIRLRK

Molecule `Nc1ncnc2c1ncn2[C@@H]1O[C@H](COP(=O)(O)OC[C@@H](N)CC(=O)O)[C@@H](O)[C@H]1O` [Asp-ol-AMP] has a Ki of 8 µM.
